# Laboratory results as given in patent US20060205787A1, “Methods and compositions using 4-amino-2-(3-methyl-2,6-dioxopiperidin-3-yl)-isoindole-1,3-dione” (priority 2005, published 2006).
row,melting point [°C],Compound
1,111 to 113,CC1(N2C(=O)c3cccc(NC(=O)CN)c3C2=O)CCC(=O)NC1=O.Cl (stereo not drawn)
2,> 260,C[C@]1(N2C(=O)c3cccc(NC(=O)CN)c3C2=O)CCC(=O)NC1=O.Cl
3,235 to 237,"C[C@]1(N2C(=O)c3cccc(N)c3C2=O)CCC(=O)NC1=O [Example 5.1.11, (3S)-4-Amino-2-(3-Methyl-2,6-Dioxopiperidin-3-yl)-Isoindole-1,3-Dione]"
